Data reported in publication PMC9011347, “Small-Molecule Inhibitors Targeting Lipolysis in Human Adipocytes” (Journal of the American Chemical Society, 2022).

Legend:
rhesus monkey ATGL = assay: TAG hydrolase assay, Expi293 lysates expressing ATGL orthologue; format: biochemical; settings: NG-497 50 μM
Text: (§1) We previously developed Atglistatin (Ai), a selective inhibitor of mouse ATGL,[31],[32] which is ineffective against human ATGL.[17] Ai acts as a competitive inhibitor targeting the minimal active domain of ATGL ranging from aa 1–254.[33] This domain is highly conserved in different mammalian species (∼90% identity, Table 1) and comprises the patatin-like domain, eponymous for all members of the patatin-like phospholipase domain-containing (PNPLA) protein family.[34] We first investigated the species selectivity of Ai by performing TAG hydrolase assays[35] with lysates from Expi293 cells expressing ATGL orthologues of different species. The activity of ATGL is strongly stimulated by the co-activator protein comparative gene identification-58 (CGI-58, also known as α/β hydrolase domain containing 5, ABHD5)[36] and can be suppressed by the inhibitory protein G0/G1 switch 2 (G0S2).[37] We therefore determined ATGL activity in the presence and absence of mouse CGI-58, mouse G0S2, and Ai. As shown in Figure 1a–i, all ATGL orthologues were expressed, enzymatically active, stimulated by mouse CGI-58, and inactivated by mouse G0S2. Ai inhibited mouse (Figure 1a), rat (Figure 1b), goat (Figure 1c), dog (Figure 1e), and marmoset ATGL (Figure 1f), but not pig (Figure 1d), rhesus monkey (Figure 1g), or human ATGL (Figure 1h).
(§2) Experimental details, materials, and methods
(§3) Expression of recombinant ATGL constructs and preparation of cell lysates. Expi293 cells were cultivated in Expi293 Expression Medium (GIBCO, Thermo Fisher Scientific, Waltham, USA) at standard conditions (37°C, 5% CO2, 95% humidified atmosphere, 125 rpm). DNA constructs containing ATGL from different species and chimeric ATGL variants in pcDNA3.1(+)myc-His C Vector were obtained from BioCat GmbH (Heidelberg, Germany). Cells were transfected with ExpiFectamine293 Transfection Kit (GIBCO) in Opti-Mem reduced serum medium (GIBCO) according to the manufacturer’s instructions. After 48 h, cells were harvested by centrifugation and washed three times with PBS. Cells were disrupted in buffer A (0.25 M sucrose, 1 mM EDTA, 1 mM dithiothreitol, 20µg/ml leupeptin, 2 µg/ml antipain, 1 µg/ml pepstatin, pH 7.0) by sonication (Virsonic 475, Virtis, Gardiner, USA). Nuclei and debris were removed by centrifugation at 1,000 g and 4°C for 10 min. Protein concentrations were determined using Bio-Rad protein assay (Bio-Rad 785, Bio-Rad Laboratories, Munich, Germany) using BSA as standard.
(§4) Expression and purification of mouse CGI-58. CGI-58 was expressed and purified as described 1. In brief, the coding sequence of mouse Cgi-58 was cloned into pHis-Sumo and co-transformed with the plasmid pTf16 expressing the chaperone Tig into E. coli BL21(DE3). Cells were cultured overnight at 37°C and 180 rpm in the presence of 40 µg/ml kanamycin and 34 µg/ml chloramphenicol. Thereafter, cells were transferred into fresh LB medium, grown until OD600 of 0.6, and expression was induced by the addition of 0.5 mM IPTG. After overnight incubation at 30°C, cells were harvested at 4,500 x g and 4°C for 20 min, washed in 1x PBS, and resuspended in lysis buffer (20 mM Tris/HCl pH 7.8, 300 mM NaCl, 30 mM imidazole, 0.1% IGEPAL CA-630, 3.5 mM β-mercaptoethanol, 20 µg/ml leupeptin, 2 µg/ml antipain and 1 µg/ml pepstatin). Cells were incubated with 1 mg/ml lysozyme at 4°C for 20 min, disrupted by sonication, and lysates were centrifuged at 30,000 x g and 4°C for 40 min. His-CGI-58 was purified from the supernatant using an ÄKTA pure system (Cytiva, Uppsala, Sweden) equipped with a 5 ml HisTrap […]
(§5) Expression and purification of mouse G0S2. Chemically competent E. coli ArcticExpress (DE3) cells were transformed with the pST50-SMT3-TEV-mG0S2-His expression plasmid, plated on LB agar plates containing 100 ampicillin, and incubated […] overnight at 37°C. The next day, 10 ml LB medium supplemented with 100 μg/ml ampicillin, 20 μg/ml gentamycin and 2% glucose were inoculated with a single colony and incubated overnight at 37°C. […]

pig ATGL = assay: as above; format: biochemical; settings: NG-497 50 μM
Text: as §1, §2, §3, §4, §5

Compound: CCOc1ccc(-c2cc(OC)cc(C(=O)OC(C)C)n2)cc1 [NG-497]
- inhibition of ATGL orthologue (rhesus monkey ATGL): inactivates
- reduction in TAG hydrolase activity (pig ATGL): less than 20%
